Test results as given in patent publication US12509452B2, “Substituted-isoxazoline-containing aromatic compound, preparation method therefor, herbicidal composition and use thereof” (QINGDAO KINGAGROOT CHEMICAL COMPOUND CO., LTD., priority 2019, dated 2025).

Experiments:
Experiment in all cases: weeding effect in post-emergence stage
Format in all cases: in vivo
Alopecurus japonicus = system: Alopecurus japonicus
Excerpt: (§1) The activity level criteria for plant damage (i.e., growth control rate) are as follows: • Level 5: growth control rate is above 85%; • Level 4: growth control rate is greater than or equal to 60% and less than 85%; • Level 3: growth control rate is greater than or equal to 40% and less than 60%; • Level 2: growth control rate is greater than or equal to 20% and less than 40%; • Level 1: growth control rate is greater than or equal to 5% and less than 20%; • Level 0: growth control rate is less than 5%.
(§2) The above growth control rates are fresh weight control rates.
(§3) Experiment on weeding effect in post-emergence stage:
(§4) Monocotyledonous and dicotyledonous weed seeds (Descurainia sophia, Capsella bursa-pastoris, Abutilon theophrasti, Galium aparine, Stellaria media, Lithospermum arvense, Rorippa indica, Alopecurus aequalis, Alopecurus japonicus, Beckmannia syzigachne, Sclerochloa dura, Conyza Canadensis, Phleum paniculatum, Veronica didyma Tenore, Bromus japonicus, Aegilops tauschii, Phalaris arundinacea, Amaranthus retroflexus, Chenopodium album, Commelina communis, Sonchus arvensis, Convolvulus arvensis, Cirsium setosum, Solanum nigrum, Acalypha australis, Digitaria sanguinalis, Echinochloa crusgalli, Setaria viridis, Setaria glauca, Leptochloa chinensis, Monochoria vaginalis, Sagittaria trifolia, Scirpus juncoides, Cyperus rotundus, Cyperus iria, Cyperus difformis, Fimbristylis, Portulaca oleracea, Xanthium sibiricum, Pharbitis nil, Conyza japonica, etc.) and major crop seeds (wheat, corn, rice, soybean, cotton, oilseed rape, millet, sorghum, potato, sesame, ricinus, etc.) were placed in plastic pots filled with soil, then covered with 0.5-2 cm of soil, allowed to grow in a good greenhouse environment. After 2 weeks of sowing, the test plants were treated in the 2-3 leaf stage. The tested compounds of the present invention were respectively dissolved in acetone, then added with Tween 80 and 1.5 liter/ha of emulsifiable concentrate of methyl oleate as synergist, diluted with a certain amount of water to obtain a solution with a certain concentration, and sprayed with a spray tower onto the plants. After the application, the plants were cultured for 3 weeks in the greenhouse, and then the experimental results of the weeding were counted. The doses of the used compounds were 500, 250, 125, 60, 15, 7.5 g a.i./ha, and the averages were obtained by repeating for three times.

Beckmannia syzigachne = system: Beckmannia syzigachne
Excerpt: as §1, §2, §3, §4

Rorippa indica = system: Rorippa indica
Excerpt: as §1, §2, §3, §4

Conyza japonica = system: Conyza japonica
Excerpt: as §1, §2, §3, §4

SMILES | weeding effect in post-emergence stage, Alopecurus japonicus (activity level) (Alopecurus japonicus; dose 15 g a.i./ha) | weeding effect in post-emergence stage, Alopecurus japonicus (activity level) (Alopecurus japonicus; dose 125 g a.i./ha) | weeding effect in post-emergence stage, Beckmannia syzigachne (activity level) (Beckmannia syzigachne; dose 15 g a.i./ha) | weeding effect in post-emergence stage, Beckmannia syzigachne (activity level) (Beckmannia syzigachne; dose 125 g a.i./ha) | weeding effect in post-emergence stage, Rorippa indica (activity level) (Rorippa indica; dose 15 g a.i./ha) | weeding effect in post-emergence stage, Rorippa indica (activity level) (Rorippa indica; dose 125 g a.i./ha) | weeding effect in post-emergence stage, Conyza japonica (activity level) (Conyza japonica; dose 15 g a.i./ha) | weeding effect in post-emergence stage, Conyza japonica (activity level) (Conyza japonica; dose 125 g a.i./ha)
CCCCC1(C(=O)OCC)CC(c2cc(-n3c(=O)n(C)c(=S)n(C)c3=O)c(F)cc2Cl)=NO1 (racemic) [Compound 6] | 5 (Level 5: growth control rate is above 85%) | 5 (Level 5: growth control rate is above 85%) | 5 (Level 5: growth control rate is above 85%) | 5 (Level 5: growth control rate is above 85%) | 5 (Level 5: growth control rate is above 85%) | 5 (Level 5: growth control rate is above 85%) | 5 (Level 5: growth control rate is above 85%) | 5 (Level 5: growth control rate is above 85%)
CCOC(=O)C1(C2CC2)CC(c2cc(-n3c(=O)n(C)c(=S)n(C)c3=O)c(F)cc2Cl)=NO1 (racemic) [Compound 17] | 5 (Level 5: growth control rate is above 85%) | 5 (Level 5: growth control rate is above 85%) | 5 (Level 5: growth control rate is above 85%) | 5 (Level 5: growth control rate is above 85%) | 5 (Level 5: growth control rate is above 85%) | 5 (Level 5: growth control rate is above 85%) | 5 (Level 5: growth control rate is above 85%) | 5 (Level 5: growth control rate is above 85%)
CCOC(=O)C1(CC2CC2)CC(c2cc(-n3c(=O)n(C)c(=S)n(C)c3=O)c(F)cc2Cl)=NO1 (racemic) [Compound 26] | 5 (Level 5: growth control rate is above 85%) | 5 (Level 5: growth control rate is above 85%) | 5 (Level 5: growth control rate is above 85%) | 5 (Level 5: growth control rate is above 85%) | 5 (Level 5: growth control rate is above 85%) | 5 (Level 5: growth control rate is above 85%) | 5 (Level 5: growth control rate is above 85%) | 5 (Level 5: growth control rate is above 85%)
CCOC(=O)C1(CBr)CC(c2cc(-n3c(=O)n(C)c(=S)n(C)c3=O)c(F)cc2Cl)=NO1 (racemic) [Compound 31] | – | 5 (Level 5: growth control rate is above 85%) | – | 5 (Level 5: growth control rate is above 85%) | – | 5 (Level 5: growth control rate is above 85%) | – | 5 (Level 5: growth control rate is above 85%)
CCOC(=O)C1(C(F)(F)F)CC(c2cc(-n3c(=O)n(C)c(=S)n(C)c3=O)c(F)cc2Cl)=NO1 (racemic) [Compound 33] | – | 5 (Level 5: growth control rate is above 85%) | – | 5 (Level 5: growth control rate is above 85%) | – | 5 (Level 5: growth control rate is above 85%) | – | 5 (Level 5: growth control rate is above 85%)
CCOC(=O)C1(CCF)CC(c2cc(-n3c(=O)n(C)c(=S)n(C)c3=O)c(F)cc2Cl)=NO1 (racemic) [Compound 34] | 5 (Level 5: growth control rate is above 85%) | 5 (Level 5: growth control rate is above 85%) | 5 (Level 5: growth control rate is above 85%) | 5 (Level 5: growth control rate is above 85%) | 5 (Level 5: growth control rate is above 85%) | 5 (Level 5: growth control rate is above 85%) | 5 (Level 5: growth control rate is above 85%) | 5 (Level 5: growth control rate is above 85%)
CCOC(=O)C1(CC(F)F)CC(c2cc(-n3c(=O)n(C)c(=S)n(C)c3=O)c(F)cc2Cl)=NO1 (racemic) [Compound 35] | – | 5 (Level 5: growth control rate is above 85%) | – | 5 (Level 5: growth control rate is above 85%) | 5 (Level 5: growth control rate is above 85%) | 5 (Level 5: growth control rate is above 85%) | 4 (Level 4: growth control rate is greater than or equal to 60% and less than 85%) | 5 (Level 5: growth control rate is above 85%)
CCOCC1(C(=O)OCC)CC(c2cc(-n3c(=O)n(C)c(=S)n(C)c3=O)c(F)cc2Cl)=NO1 (racemic) [Compound 43] | – | 5 (Level 5: growth control rate is above 85%) | – | 5 (Level 5: growth control rate is above 85%) | 5 (Level 5: growth control rate is above 85%) | 5 (Level 5: growth control rate is above 85%) | 4 (Level 4: growth control rate is greater than or equal to 60% and less than 85%) | 5 (Level 5: growth control rate is above 85%)
CCOC(=O)COCC1(C(=O)OCC)CC(c2cc(-n3c(=O)n(C)c(=S)n(C)c3=O)c(F)cc2Cl)=NO1 (racemic) [Compound 54] | – | 5 (Level 5: growth control rate is above 85%) | – | 5 (Level 5: growth control rate is above 85%) | – | 5 (Level 5: growth control rate is above 85%) | – | 5 (Level 5: growth control rate is above 85%)
